Values of other authors as cited in article PMC10591878 (ACS infectious diseases, 2023).

What was measured:
[1] = tested on: P. falciparum Dd2-B2 parasites; conditions: for MIR: Dd2-B2; for resistant parasites in 3 wells of 3 × 10^7 / resistant parasites in 4 wells of 2.5 × 10^6: Dd2-B2, 3 × EC50
[2] = tested on: Dd2-B2 Pf20S WT and mutant lines; conditions: β6 N151Y vs Dd2-B2 parental line

Structure (SMILES) | MIR [1] | resistant parasites in 3 wells of 3 × 10^7 [1] | resistant parasites in 4 wells of 2.5 × 10^6 [1] | EC50 fold shift against selection compound [2] [×] | number of parasites with which resistance was obtained [1]
O=C(NC1CCCC1)[C@@H]1CCCCOc2cccc(c2)C[C@H](N2CCCC2=O)C(=O)N[C@@H](CCN2CCOCC2)C(=O)N1 [TDI-8304] | 3×10^7 | 3/3 wells | 0/4 wells | 1.7 | –
CC(C)C[C@@H](/C=C/S(C)(=O)=O)NC(=O)[C@H](CC(C)C)NC(=O)[C@H](Cc1c[nH]c2ccccc12)NC(=O)CN1CCOCC1 [WLL] | >1 × 10^9 | none | 0/4 wells | – | 2 × 10^9 parasites
